# Test system: goblet cells
# Assay: Goblet cell density in eye tissue of scopolamine-treated rats (dry eye model), PAS-stained thin sections, blinded grader ratings
# Format: in vivo, Sprague-Dawley male rats
# Experimental: Sprague-Dawley male rats (7 weeks old, average weight=444 g) were treated with subcutaneous (SC) scopolamine hydrobromide in normal saline (n=30, 25 mg/kg injected 3× per day) or nothing (n=4). Scopolamine treated animals received either (a) 50 mM meglumine in the drinking water (n=10), (b) a 3× daily eyemist containing 2% by weight of meglumine hydrochloride (n=10) or (c) a 3× daily eyemist of normal saline (n=10). Treatment was for 4.5 weeks. One animal receiving scopolamine and the meglumine eyemist died just prior to the end of the study, and the eye tissues were not analyzed. Animals were euthanized and the eye orbit and surrounding tissue from both eyes were removed and placed in formalin. Tissues were embedded in paraffin, thin sections prepared, and stained with periodic acid Schiff to more easily visualize the goblet cells.
# Animals not treated with scopolamine or with scopolamine and a saline eyemist had the lowest levels of goblet cells. […] The difference in goblet cell density between the untreated animals and those treated with oral meglumine was significant for one grader (p=0.04) and approached significance for the other (p=0.07). The meglumine eye mist referred to in Table 1 was obtained from Piedmont Chemical Industries (High Point, N.C.).
smiles,measurement,setting,value
"CNC[C@H](O)[C@@H](O)[C@H](O)[C@H](O)CO [oral meg, meglumine]",extent of regions containing goblet cells (FIG. 1),"scopolamine-dosed rats, oral meglumine versus saline eyemist",more extensive regions containing goblet cells
same,levels of goblet cells compared with the other groups (in words),"scopolamine-treated rats, 50 mM meglumine in the drinking water, 4.5 weeks",highest levels of goblet cells
